Measured values: the RepoRT retention time repository (doi:10.1007/s00216-021-03828-0)

What was measured:
Conditions in all cases: stereoisomer not certain
[1] = RP, Merck Supelco Ascentis Express C18, 100 × 2.1 mm, 2 µm, 40 °C, 0.4 mL/min, estimated dead time 0.55 min; A: water + 0.1% formic acid, pH 3; B: acetonitrile + 0.1% formic acid, pH 3; gradient (min/%B) 0/5 2/5 17/99.9 20/99.9
[2] = RP, Merck Supelco Ascentis Express C18, 100 × 2.1 mm, 2 µm, 40 °C, 0.2 mL/min, estimated dead time 1.1 min; A: water + 0.1% formic acid, pH 3; B: acetonitrile + 0.1% formic acid, pH 3; gradient (min/%B) 0/5 2/5 17/99.9 20/99.9
[3] = RP, Merck Supelco Ascentis Express C18, 100 × 2.1 mm, 2 µm, 40 °C, 0.4 mL/min, estimated dead time 0.55 min; A: water + 0.1% formic acid, pH 3; B: acetonitrile + 0.1% formic acid, pH 3; gradient (min/%B) 0/5 2/5 17/99.9 20/99.9; remark: listed apart in the source
[4] = RP, Merck Supelco Ascentis Express C18, 100 × 2.1 mm, 2 µm, 40 °C, 0.25 mL/min, estimated dead time 0.88 min; A: water + 0.1% formic acid, pH 3; B: acetonitrile + 0.1% formic acid, pH 3; gradient (min/%B) 0/5 2/5 17/99.9 20/99.9
[5] = RP, Merck Supelco Ascentis Express C18, 100 × 2.1 mm, 2 µm, 40 °C, 0.35 mL/min, estimated dead time 0.63 min; A: water + 0.1% formic acid, pH 3; B: acetonitrile + 0.1% formic acid, pH 3; gradient (min/%B) 0/5 2/5 17/99.9 20/99.9
[6] = RP, Merck Supelco Ascentis Express C18, 100 × 2.1 mm, 2 µm, 40 °C, 0.2 mL/min, estimated dead time 1.1 min; A: water + 0.1% formic acid, pH 3; B: acetonitrile + 0.1% formic acid, pH 3; gradient (min/%B) 0/5 2/5 17/99.9 20/99.9; remark: listed apart in the source
[7] = RP, Merck Supelco Ascentis Express C18, 100 × 2.1 mm, 2 µm, 39 °C, 0.3 mL/min, estimated dead time 0.73 min; A: water + 0.1% formic acid, pH 3; B: acetonitrile + 0.1% formic acid, pH 3; gradient (min/%B) 0/5 2/5 17/99.9 20/99.9

Structure (SMILES)	LC retention time [1] [min]	LC retention time [2] [min]	LC retention time [3] [min]	LC retention time [4] [min]	LC retention time [5] [min]	LC retention time [6] [min]	LC retention time [7] [min]
N[C@@H](Cc1cc(I)c(Oc2ccc(O)cc2)c(I)c1)C(=O)O [3,5-DIIODO-L-THYRONINE]	5.98	7.22	6.02	6.77	6.19	7.21	6.45
N[C@@H](Cc1cc(I)c(O)c(I)c1)C(=O)O [3,5-DIIODO-L-TYROSINE]	4.03	5.37	4.07	4.89	4.26	5.38	4.54
O=C(O)C=Cc1ccc(O)cc1 [4-COUMARATE]	4.64	6.25	4.68	5.68	4.94	6.26	5.3
O=Cc1ccc(O)cc1 [4-HYDROXYBENZALDEHYDE]	3.59	5.46	3.64	4.82	3.94	5.47	4.34
O=C(O)c1ccc(O)cc1 [4-HYDROXYBENZOATE]	2.54	4.53	2.59	3.91	2.94	4.53	3.42
Cc1ncc(CO)c(C(=O)O)c1O [4-PYRIDOXATE]	0.757	1.57	0.767	1.23	0.877	1.57	1.02
O=C(O)c1ccnc2ccccc12 [4-QUINOLINECARBOXYLATE]	0.763	1.6	0.773	1.26	0.88	1.57	1.04
Cc1cc2nc[nH]c2cc1C [5,6 DIMETHYLBENZIMIDAZOLE]	3.76	5.17	3.79	4.67	4	5.16	4.28
O=C(O)c1ccc(=O)[nH]c1 [6-HYDROXYNICOTINATE]	0.773	1.59	0.787	1.26	0.887	1.59	1.06
O=C(O)CCCCCCCCCO [10-HYDROXYDECANOATE]	6.55	8.02	6.58	7.49	6.8	8.03	7.1
Nc1ccccc1S(=O)(=O)O [ANILINE-2-SULFONATE]	0.823	1.76	0.847	1.38	0.95	1.74	1.18
O=C(O)c1ccccc1 [BENZOATE]	5.23	7.03	5.28	6.4	5.55	7.03	4.34

Second part, the molecule after the results:

LC retention time [1] [min]	LC retention time [2] [min]	LC retention time [3] [min]	LC retention time [4] [min]	LC retention time [5] [min]	LC retention time [6] [min]	LC retention time [7] [min]	Structure (SMILES)
5.08	12.1	5.13	6.14	5.36	6.72	5.72	O=C(O)CCc1ccccc1O [3-(2-HYDROXYPHENYL)PROPANOATE]
0.76	1.6	0.773	1.26	0.893	1.59	1.06	CC(O)(CC(=O)O)CC(=O)O [3-HYDROXYMETHYLGLUTARATE]
5.14	7	5.17	6.34	5.5	7.01	5.94	O=C(O)Cc1cccc(O)c1 [3-HYDROXYPHENYLACETATE]
1.35	2.72	1.35	2.14	1.56	2.7	1.78	N[C@@H](Cc1ccc(O)c([N+](=O)[O-])c1)C(=O)O [3-NITRO-L-TYROSINE]
0.783	1.63	0.8	1.29	0.923	1.63	1.07	CC(=O)NCCCC(=O)O [4-ACETAMIDOBUTANOATE]
0.937	1.92	0.95	1.49	1.09	1.89	1.24	CC1OC(n2cnc3c(N)ncnc32)C(O)C1O (configuration not stated) [5'-DEOXYADENOSINE]
3.17	4.79	3.19	4.23	3.47	4.78	3.83	O=C(O)Cc1c[nH]c2ccc(O)cc12 [5-HYDROXYINDOLEACETATE]
0.81	1.71	0.853	1.35	0.993	1.75	1.1	NC(Cc1c[nH]c2ccc(O)cc12)C(=O)O (configuration not stated) [5-HYDROXYTRYPTOPHAN]
3.63	5.13	3.66	4.61	3.89	5.14	4.22	O=C(O)CCCCCC(=O)O [6-CARBOXYHEXANOATE]
5.49	6.89	5.57	6.39	5.73	6.98	6.09	O=C(O)CCCCCCCC(=O)O [AZELATE]
4.11	5.44	4.14	4.96	4.34	5.44	4.62	O=C(O)CCCCC1SCC2NC(=O)NC21 (configuration not stated) [BIOTIN]
8.9	10.3	8.94	9.77	9.14	10.3	9.4	CC(CCC(=O)O)C1CCC2C3C(O)CC4CC(O)CCC4(C)C3CC(O)C12C (configuration not stated) [CHOLATE]
7.69	9.16	7.73	8.66	7.95	9.2	8.25	CC12CCC(=O)C=C1CCC1C2CCC2(C)C1CCC2(O)C(=O)CO (configuration not stated) [CORTEXOLONE]
8.05	9.62	8.09	9.05	8.33	9.62	8.64	CC(=O)OCC(=O)C1(O)CCC2C3CCC4=CC(=O)CCC4(C)C3C(O)CC21C (configuration not stated) [CORTISOL 21-ACETATE]
